The values that follow come from ChEMBL document CHEMBL1201862, “PubChem BioAssay data set” (2004).

Some test systems named below: A498; CAKI-1; CCRF-CEM; HCC 2998; HCT-15; LOX IMVI; MDA-MB-231; NCI-H226; RXF 393; SF-539; SK-MEL-5; SK-OV-3; SW-620; U-251; DU-145; UO-31; HL-60; Hs-578T; SR.
What all share (assay): NCI-60 cell line screen, 48 h

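Where inhibition never reached the appropriate level, the endpoint shown equals the highest concentration tested. Otherwise, values were interpolated linearly from a five-concentration, 48-hour dose response in 96-well plates. GI50 is the concentration that inhibits growth by half.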 Active and inactive are the calls of the source. Rule as the data show it: active = GI50 up to about 1.1 µM and inactive = higher. Bounds are passed on as bounds.

In the case of `Cc1ccc(-c2c(C#N)c(-c3ccccc3)n(NS(=O)(=O)c3ccc(C)cc3)c(=O)c2C#N)cc1`, the GI50 in the assay on A498 is 52.8 µM (inactive); with CAKI-1, 71.1 µM (inactive); in the assay on CCRF-CEM, 23 µM (inactive); in the assay on HCC 2998 it was 47.4 µM (inactive); with HCT-15 it was 36.4 µM; in the assay on LOX IMVI it was 26.7 µM (inactive). Moreover, the GI50 in the assay with MDA-MB-231 was > 100 µM (inactive); with NCI-H226, 74.3 µM (inactive); in the assay with RXF 393 it was 51.5 µM (inactive); in the assay on SF-539, 34 µM (inactive); in the assay on SK-MEL-5, 19.2 µM (inactive); in the assay on SK-OV-3 it was 96.6 µM (inactive). Besides, the GI50 in the assay with SW-620 was 40.6 µM (inactive); in the assay on U-251, 49.5 µM (inactive).

Turning to `S=c1oc(CCCCCCCCc2nn(CNc3ccccc3)c(=S)o2)nn1CNc1ccccc1`, the GI50 in the assay with A498 was > 100 µM (inactive); in the assay on CAKI-1, > 100 µM (inactive); with DU-145, > 100 µM (inactive); in the assay on HCC 2998 it was > 100 µM (inactive); in the assay on HCT-15 it was greater than 100 µM; in the assay on MDA-MB-231, > 100 µM (inactive). Further, the GI50 in the assay on NCI-H226, with SK-MEL-5, in the assay with SK-OV-3, in the assay on SW-620, in the assay on U-251 and in the assay on UO-31 was > 100 µM (inactive) each time.

For the molecule `O=C1CCCC2=C1CC1=C(CCCC1=O)N2c1cccc2ccccc12`, the GI50 with A498 is > 100 µM (inactive); in the assay with CAKI-1, > 100 µM (inactive); with CCRF-CEM it was 47.3 µM (inactive); in the assay with HCC 2998, > 100 µM (inactive); with HCT-15 it was 66.7 µM; in the assay with HL-60 it was 17 µM (inactive). For the same molecule, the GI50 in the assay on Hs-578T is 33.8 µM (inactive); in the assay on LOX IMVI, > 100 µM (inactive); in the assay with NCI-H226, > 100 µM (inactive); with RXF 393, 10.9 µM (inactive); in the assay on SF-539 it was > 100 µM (inactive); in the assay with SK-MEL-5, 85.3 µM (inactive). The GI50 is > 100 µM (inactive) in the assay with SK-OV-3; > 100 µM (inactive) in the assay with SR; > 100 µM (inactive) in the assay with SW-620; 61 µM (inactive) in the assay with U-251; > 100 µM (inactive) in the assay with UO-31.

As to `Nn1c(CCCCCCCCc2nnc(COc3ccc(Cl)cc3)n2N)nnc1COc1ccc(Cl)cc1`, the GI50 was 95.1 µM (inactive) in the assay on A498; 16.9 µM (inactive) with CAKI-1; > 100 µM (inactive) in the assay with DU-145; > 100 µM (inactive) in the assay with HCC 2998; greater than 100 µM with HCT-15; > 100 µM (inactive) in the assay on MDA-MB-231. The GI50 with NCI-H226, in the assay with RXF 393, in the assay on SK-MEL-5, in the assay on SK-OV-3, with SW-620 and in the assay with U-251 was > 100 µM (inactive) each time. Also, the GI50 with UO-31 was 25.4 µM (inactive).

Consider `O=C1c2ccccc2OP(=O)(OCC(F)(F)F)OC1(C(F)(F)F)C(F)(F)F` (configuration not stated), for which the GI50 with A498 is > 100 µM (inactive); with CAKI-1, > 100 µM (inactive); in the assay with CCRF-CEM, > 100 µM (inactive); in the assay with HCC 2998, > 100 µM (inactive); in the assay with HCT-15, greater than 100 µM; in the assay on HL-60, > 100 µM (inactive). Further, the GI50 with LOX IMVI, with NCI-H226, in the assay with RXF 393, with SF-539, with SK-MEL-5 and in the assay with SK-OV-3 was > 100 µM (inactive) each time. The GI50 with SR was > 100 µM (inactive); with SW-620, > 100 µM (inactive); in the assay on U-251 it was > 100 µM (inactive); with UO-31 it was 45.3 µM (inactive).
